Assay results: ChEMBL document CHEMBL1255475, “Mutant prevention concentrations of four carbapenems against gram-negative rods” (2010)
Values after ≈ are worked out from the molar mass of the structure shown.

What was measured:
[1] = test system: Pseudomonas aeruginosa; experiment: Antibacterial activity against Pseudomonas aeruginosa P337 after 24 hrs by agar dilution method; conditions: P337, 24 h
[2] = test system: Pseudomonas aeruginosa; experiment: Antibacterial activity against Pseudomonas aeruginosa P335 after 24 hrs by agar dilution method; conditions: P335, 24 h
[3] = test system: Klebsiella pneumoniae; experiment: Antibacterial activity against beta-lactamase-negative Klebsiella pneumoniae E358 after 24 hrs by agar dilution method; type: functional; conditions: E358, 24 h
[4] = test system: Escherichia coli; experiment: Antibacterial activity against beta-lactamase-negative Escherichia coli E350 after 24 hrs by agar dilution method; conditions: E350, 24 h
[5] = test system: Escherichia coli; experiment: Antibacterial activity against beta-lactamase-positive ESBL-positive Escherichia coli E451 after 24 hrs by agar dilution method; conditions: E451, 24 h
[6] = test system: Pseudomonas aeruginosa; experiment: Antibacterial activity against Pseudomonas aeruginosa P376 after 24 hrs by agar dilution method; conditions: P376, 24 h
[7] = test system: Pseudomonas aeruginosa; experiment: Antibacterial activity against Pseudomonas aeruginosa P338 after 24 hrs by agar dilution method; conditions: P338, 24 h
[8] = test system: Pseudomonas aeruginosa; experiment: Antibacterial activity against Pseudomonas aeruginosa P323 after 24 hrs by agar dilution method; conditions: P323, 24 h
[9] = test system: Pseudomonas aeruginosa; experiment: Antibacterial activity against Pseudomonas aeruginosa P322 after 24 hrs by agar dilution method; conditions: P322, 24 h
[10] = test system: Pseudomonas aeruginosa; experiment: Antibacterial activity against Pseudomonas aeruginosa P341 after 24 hrs by agar dilution method; conditions: P341, 24 h
[11] = test system: Klebsiella pneumoniae; experiment: Antibacterial activity against beta-lactamase-negative Klebsiella pneumoniae E357 after 24 hrs by agar dilution method; type: functional; conditions: E357, 24 h
[12] = test system: Pseudomonas aeruginosa; experiment: Antibacterial activity against Pseudomonas aeruginosa P365 after 24 hrs by agar dilution method; conditions: P365, 24 h
[13] = test system: Acinetobacter baumannii; experiment: Antibacterial activity against Acinetobacter baumannii A885 after 24 hrs by agar dilution method; type: functional; conditions: A885, 24 h
[14] = test system: Klebsiella pneumoniae; experiment: Antibacterial activity against beta-lactamase-negative Klebsiella pneumoniae E361 after 24 hrs by agar dilution method; type: functional; conditions: E361, 24 h
[15] = test system: Acinetobacter baumannii; experiment: Antibacterial activity against Acinetobacter baumannii A912 after 24 hrs by agar dilution method; type: functional; conditions: A912, 24 h
[16] = test system: Pseudomonas aeruginosa; experiment: Antibacterial activity against Pseudomonas aeruginosa P369 after 24 hrs by agar dilution method; conditions: P369, 24 h
[17] = test system: Acinetobacter baumannii; experiment: Antibacterial activity against Acinetobacter baumannii A848 after 24 hrs by agar dilution method; type: functional; conditions: A848, 24 h
[18] = test system: Klebsiella pneumoniae; experiment: Antibacterial activity against beta-lactamase-positive ESBL-negative Klebsiella pneumoniae E509 after 24 hrs by agar dilution method; type: functional; conditions: E509, 24 h
[19] = test system: Acinetobacter baumannii; experiment: Antibacterial activity against Acinetobacter baumannii A898 after 24 hrs by agar dilution method; type: functional; conditions: A898, 24 h
[20] = test system: Acinetobacter baumannii; experiment: Antibacterial activity against Acinetobacter baumannii A911 after 24 hrs by agar dilution method; type: functional; conditions: A911, 24 h
[21] = test system: Klebsiella pneumoniae; experiment: Antibacterial activity against beta-lactamase-negative Klebsiella pneumoniae E360 after 24 hrs by agar dilution method; type: functional; conditions: E360, 24 h
[22] = test system: Escherichia coli; experiment: Antibacterial activity against beta-lactamase-positive ESBL-negative Escherichia coli E483 after 24 hrs by agar dilution method; conditions: E483, 24 h
[23] = test system: Escherichia coli; experiment: Antibacterial activity against beta-lactamase-negative Escherichia coli E408 after 24 hrs by agar dilution method; conditions: E408, 24 h
[24] = test system: Acinetobacter baumannii; experiment: Antibacterial activity against Acinetobacter baumannii A864 assessed as mutant prevention concentration after overnight incubation; type: functional
[25] = test system: Pseudomonas aeruginosa; experiment: Antibacterial activity against Pseudomonas aeruginosa P356 after 24 hrs by agar dilution method; conditions: P356, 24 h
[26] = test system: Escherichia coli; experiment: Ratio of mutant prevention concentration to minimum Inhibitory concentration for beta-lactamase-positive ESBL-negative Escherichia coli E430; type: functional
[27] = test system: Klebsiella pneumoniae; experiment: Ratio of mutant prevention concentration to minimum Inhibitory concentration for beta-lactamase-negative Klebsiella pneumoniae E418; type: functional
[28] = test system: Klebsiella pneumoniae; experiment: Ratio of mutant prevention concentration to minimum Inhibitory concentration for beta-lactamase-positive ESBL-negative Klebsiella pneumoniae E509; type: functional
[29] = test system: Klebsiella pneumoniae; experiment: Ratio of mutant prevention concentration to minimum Inhibitory concentration for beta-lactamase-positive ESBL-positive Klebsiella pneumoniae E475; type: functional
[30] = test system: Escherichia coli; experiment: Ratio of mutant prevention concentration to minimum Inhibitory concentration for beta-lactamase-positive ESBL-negative Escherichia coli E484; type: functional
[31] = test system: Acinetobacter baumannii; experiment: Ratio of mutant prevention concentration to minimum Inhibitory concentration for Acinetobacter baumannii A894; type: functional
[32] = test system: Pseudomonas aeruginosa; experiment: Antibacterial activity against Pseudomonas aeruginosa P363 incubated up to 7 days by agar dilution method; type: functional; conditions: P363, 168 h
[33] = test system: Pseudomonas aeruginosa; experiment: Ratio of mutant prevention concentration to minimum Inhibitory concentration for Pseudomonas aeruginosa P349; type: functional
[34] = test system: Escherichia coli; experiment: Ratio of mutant prevention concentration to minimum Inhibitory concentration for beta-lactamase-negative Escherichia coli E344; type: functional
[35] = test system: Pseudomonas aeruginosa; experiment: Antibacterial activity against Pseudomonas aeruginosa P334 incubated up to 7 days by agar dilution method; type: functional; conditions: P334, 168 h
[36] = test system: Klebsiella pneumoniae; experiment: Ratio of mutant prevention concentration to minimum Inhibitory concentration for beta-lactamase-positive ESBL-positive Klebsiella pneumoniae E478; type: functional
[37] = test system: Acinetobacter baumannii; experiment: Ratio of mutant prevention concentration to minimum Inhibitory concentration for Acinetobacter baumannii A908; type: functional
[38] = test system: Acinetobacter baumannii; experiment: Ratio of mutant prevention concentration to minimum Inhibitory concentration for Acinetobacter baumannii A929; type: functional
[39] = test system: Pseudomonas aeruginosa; experiment: Antibacterial activity against Pseudomonas aeruginosa P356 incubated up to 7 days by agar dilution method; type: functional; conditions: P356, 168 h
[40] = test system: Escherichia coli; experiment: Ratio of mutant prevention concentration to minimum Inhibitory concentration for beta-lactamase-negative Escherichia coli E347; type: functional
[41] = test system: Pseudomonas aeruginosa; experiment: Ratio of mutant prevention concentration to minimum Inhibitory concentration for Pseudomonas aeruginosa P326; type: functional
[42] = test system: Acinetobacter baumannii; experiment: Antibacterial activity against Acinetobacter baumannii A911 incubated for 24 h by agar dilution method; conditions: A911, 24 h
[43] = test system: Pseudomonas aeruginosa; experiment: Antibacterial activity against Pseudomonas aeruginosa P349 incubated up to 7 days by agar dilution method; type: functional; conditions: P349, 168 h
[44] = test system: Acinetobacter baumannii; experiment: Antibacterial activity against Acinetobacter baumannii A850 incubated up to 7 days by agar dilution method; type: functional; conditions: A850, 168 h
[45] = test system: Klebsiella pneumoniae; experiment: Ratio of mutant prevention concentration to minimum Inhibitory concentration for beta-lactamase-positive ESBL-positive Klebsiella pneumoniae E453; type: functional
[46] = test system: Pseudomonas aeruginosa; experiment: Ratio of mutant prevention concentration to minimum Inhibitory concentration for Pseudomonas aeruginosa P320; type: functional
[47] = test system: Pseudomonas aeruginosa; experiment: Ratio of mutant prevention concentration to minimum Inhibitory concentration for Pseudomonas aeruginosa P373; type: functional
[48] = test system: Pseudomonas aeruginosa; experiment: Ratio of mutant prevention concentration to minimum Inhibitory concentration for Pseudomonas aeruginosa P340; type: functional
[49] = test system: Pseudomonas aeruginosa; experiment: Antibacterial activity against Pseudomonas aeruginosa P358 incubated up to 7 days by agar dilution method; type: functional; conditions: P358, 168 h
[50] = test system: Klebsiella pneumoniae; experiment: Ratio of mutant prevention concentration to minimum Inhibitory concentration for beta-lactamase-negative Klebsiella pneumoniae E357; type: functional
[51] = test system: Pseudomonas aeruginosa; experiment: Ratio of mutant prevention concentration to minimum Inhibitory concentration for Pseudomonas aeruginosa P369; type: functional
[52] = test system: Pseudomonas aeruginosa; experiment: Ratio of mutant prevention concentration to minimum Inhibitory concentration for Pseudomonas aeruginosa P327; type: functional
[53] = test system: Acinetobacter baumannii; experiment: Antibacterial activity against Acinetobacter baumannii A864 incubated for 24 hrs by agar dilution method; conditions: A864, 24 h

C[C@@H](O)[C@H]1C(=O)N2C(C(=O)O)=C(SCCNC=N)C[C@H]12 [IMIPENEM ANHYDROUS] gave an MIC [1] of 2 µg/mL (≈ 6.68 µM), an MIC [2] of 1 µg/mL (≈ 3.34 µM) and an MIC [3] of 0.25 µg/mL (≈ 0.835 µM). For the same compound, the MIC [4] was 0.5 µg/mL (≈ 1.67 µM), the MIC [5] was 0.25 µg/mL (≈ 0.835 µM) and the MIC [6] was 4 µg/mL (≈ 13.4 µM). It also gave an MIC [7] of 2 µg/mL (≈ 6.68 µM), an MIC [8] of 2 µg/mL (≈ 6.68 µM) and an MIC [9] of 4 µg/mL (≈ 13.4 µM). The MIC [10] was 4 µg/mL (≈ 13.4 µM), the MIC [11] was 0.25 µg/mL (≈ 0.835 µM) and the MIC [12] was 2 µg/mL (≈ 6.68 µM). For the same compound, the MIC [13] was 2 µg/mL (≈ 6.68 µM), the MIC [14] was 0.5 µg/mL (≈ 1.67 µM) and the MIC [15] was 2 µg/mL (≈ 6.68 µM). For the same compound, the MIC [16] was 2 µg/mL (≈ 6.68 µM), the MIC [17] was 4 µg/mL (≈ 13.4 µM) and the MIC [18] was 8 µg/mL (≈ 26.7 µM). The MIC [19] was 1 µg/mL (≈ 3.34 µM), the MIC [20] was 2 µg/mL (≈ 6.68 µM) and the MIC [21] was 0.25 µg/mL (≈ 0.835 µM). The MIC [22] was 1 µg/mL (≈ 3.34 µM), the MIC [23] was 0.125 µg/mL (≈ 0.418 µM) and the MPC [24] was 64 µg/mL. It also gave an MIC [25] of 2 µg/mL (≈ 6.68 µM).

C[C@@H](O)[C@H]1C(=O)N2C(C(=O)O)=C(S[C@@H]3CN[C@H](CNS(N)(=O)=O)C3)[C@H](C)[C@H]12 [DORIPENEM] was tested, and the Ratio [26] was 4, the Ratio [27] was 2 and the Ratio [28] was >16. It also gave a Ratio [29] of 8, a Ratio [30] of 4 and a Ratio [31] of 4. It also gave an MIC [32] of 0.25 µg/mL (≈ 0.595 µM), a Ratio [33] of 16 and a Ratio [34] of 2. The MIC [35] was 0.125 µg/mL (≈ 0.297 µM), the Ratio [36] was >16 and the Ratio [37] was 2. For the same compound, the Ratio [38] was 2, the MIC [39] was 0.25 µg/mL (≈ 0.595 µM) and the Ratio [40] was 2. The Ratio [41] was 4, the MIC [42] was 4 µg/mL (≈ 9.51 µM) and the MIC [43] was 0.5 µg/mL (≈ 1.19 µM). For the same compound, the MIC [44] was 4 µg/mL (≈ 9.51 µM), the Ratio [45] was 2 and the MPC [24] was 64 µg/mL. The Ratio [46] was >8, the Ratio [47] was >8 and the Ratio [48] was 8. For the same compound, the MIC [49] was 8 µg/mL (≈ 19 µM), the Ratio [50] was 2 and the Ratio [51] was 8. It also gave a Ratio [52] of 16 and an MIC [53] of 8 µg/mL (≈ 19 µM).

C[C@@H](O)[C@H]1C(=O)N2C(C(=O)O)=C(S[C@@H]3CN[C@H](C(=O)N(C)C)C3)[C@H](C)[C@H]12 [MEROPENEM] was tested, and the MIC [32] was 0.5 µg/mL (≈ 1.3 µM), the MIC [35] was 0.25 µg/mL (≈ 0.652 µM) and the MIC [39] was 0.5 µg/mL (≈ 1.3 µM). The MIC [42] was 4 µg/mL (≈ 10.4 µM), the MIC [43] was 1 µg/mL (≈ 2.61 µM) and the MIC [44] was 4 µg/mL (≈ 10.4 µM). It also gave an MIC [49] of 8 µg/mL (≈ 20.9 µM) and an MIC [53] of 8 µg/mL (≈ 20.9 µM).

In the case of C[C@@H](O)[C@H]1C(=O)N2C(C(=O)O)=C(S[C@@H]3CN[C@H](C(=O)Nc4cccc(C(=O)O)c4)C3)[C@H](C)[C@H]12, the Ratio [26] is reported as >8, the Ratio [27] is reported as 2 and the Ratio [28] is reported as 4. The Ratio [29] was 2, the Ratio [30] was 16 and the Ratio [34] was 4. For the same compound, the Ratio [36] was 2, the Ratio [40] was 4 and the Ratio [45] was 2. For the same compound, the Ratio [50] was 4.
